{"source": "patent US5773430A", "about": "“Serine proteinase inhibitory activity by hydrophobic tetracycline” (Research Foundation of State University of New York, priority 1997, dated 1998)", "key": {"[1]": {"molecular_target": "T1, human leukocyte elastase (HLE) (Homo sapiens, UniProt P08246)", "T1 sequence (P08246 30-267)": "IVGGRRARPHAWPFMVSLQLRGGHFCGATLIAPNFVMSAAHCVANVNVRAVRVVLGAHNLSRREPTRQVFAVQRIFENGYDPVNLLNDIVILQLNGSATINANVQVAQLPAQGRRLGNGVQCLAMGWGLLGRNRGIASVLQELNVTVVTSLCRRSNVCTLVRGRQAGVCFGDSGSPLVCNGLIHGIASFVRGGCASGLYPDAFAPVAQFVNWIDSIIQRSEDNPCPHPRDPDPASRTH", "assay": "HLE amidolytic activity (methoxysuccinyl-Ala-Ala-Pro-Val-p-nitroanilide)", "format": "biochemical", "from_the_text": "This oligopeptide is generally assumed to occupy the first five subsites of the extended substrate binding domain in HLE.\nTo avoid time-dependent adsorption of HLE onto the wells of the 96-well microplates used in the amidolytic assays, the plates were pretreated with a solution of 0.2% bovine serum albumin. […] The […] concentration at which the Dixon plots intersect is a measure of Ki for the inhibitor.\nThe inhibitory activity of doxycycline towards amidolysis of methoxysuccinyl-Ala-Ala-Pro-Val-p-nitroanilide by HLE was also determined in the presence of 2% DMSO and no detergent, as described above for CMT-3."}, "[2]": {"molecular_target": "T1, human leukocyte elastase (HLE)", "assay": "ECM degradation mediated by purified HLE", "format": "biochemical", "experimental": "Direct inhibition of HLE by CMT-3 was determined (Example 2) using a modification of the assay of human leukocyte elastase (HLE) activity described by Ying et al. (Q. Ying, A. R. Rinehart, S. R. Simon, and J. C. Cheronis, \"Inhibition of Human Leukocyte Elastase by Ursolic Acid: Evidence for a Hydrophobic Binding Site for Pentacyclic Triterpenes,\" Biochem. J. 277, 521-526 (1991)) in which the organic solvent and detergent concentrations have been reduced, using a traditional assay of human leukocyte elastase (HLE) activity by measurement of the amidolysis of the chromogenic oligopeptide substrate, methoxysuccinyl-Ala-Ala-Pro-Val-p-nitroanilide. This oligopeptide is generally assumed to occupy the first five subsites of the extended substrate binding domain in HLE. […] When CMT-3 is employed in the assay of ECM degradation mediated by purified HLE rather than live neutrophils, it proves to be an effective inhibitor, with an apparent I50 of ~25-50 μM.\nThe capacity of CMT-3 to inhibit HLE is not confined to amidolytic assays, as already shown in FIG. 2, in which the degradation of a complete interstitial extracellular matrix by purified HLE is inhibited by CMT-3."}, "[3]": {"tested_on": "human neutrophils (live PMN's)", "assay": "Neutrophil (PMN + 0.5 nM PMA)-mediated R22-ECM hydrolysis (3H-proline cpm released in 6 h)", "format": "cell-based", "from_the_text": "The activity of various tetracyclines was investigated employing an in vitro assay of inflammatory tissue injury in which human neutrophils are allowed to degrade a biosynthetically prepared complete interstitial stromal extracellular matrix (ECM). A neutrophil is one type of leukocyte (polymorphonuclear leukocyte). […] E. J. Roemer, K. J. Stanton, and S. R. Simon, \"In Vitro Assay Systems for Inflammatory Cell-Mediated Damage to Interstitial Extracellular Matrix,\" In Vitro Toxicol. 7,75-81 (1994); E. J. Roemer, K. J. Stanton, and S. R. Simon, \"In Vitro Assay Systems for Cell Interactions With Interstitial Extracellular Matrix,\" In Vitro Toxicol. 7,209-224 (1994).\nThe serine proteinase inhibiting activity of tetracyclines was tested using an in vitro assay of inflammatory tissue injury in which human neutrophils (live PMN's) were allowed to degrade a biosynthetically prepared complete interstitial stromal extracellular matrix (ECM) produced by cultured R22 rat heart smooth muscle cells as described by Roemer et al. (E. J. Roemer, K. J. Stanton, and S. R. Simon, \"In Vitro Assay Systems for Inflammatory Cell-Mediated Damage to Interstitial Extracellular Matrix,\" In Vitro Toxicol. 7,75-81 (1994); E. J. Roemer, K. J. Stanton, and S. R. Simon, \"In Vitro Assay Systems for Cell Interactions With Interstitial Extracellular Matrix,\" In Vitro Toxicol. 7,209-224 (1994)). Ten different chemically modified tetracyclines (CMTs) designated CMT-1 through CMT-10 and doxycycline, at concentrations ranging from 5 μM to 50 μM, were added to the ECM simultaneously with a suspension of 2×10^6 viable human PMN/mL in Hank's balanced salts solution (HBSS). In these studies, the ECM was metabolically radiolabeled with ^3 H-proline, and counts solubilized after six hours of incubation were measured and compared with counts released after incubation with PMN alone."}, "[4]": {"molecular_target": "T1, human leukocyte elastase (HLE)", "assay": "HLE amidolytic activity (methoxysuccinyl-Ala-Ala-Pro-Val-p-nitroanilide)", "format": "biochemical", "details": "in the presence of 10% dimethylsulfoxide and 0.1% Triton X-100"}, "[5]": {"molecular_target": "T2, leukocyte elastase (Homo sapiens, UniProt P08246)", "T2 sequence (P08246 30-247)": "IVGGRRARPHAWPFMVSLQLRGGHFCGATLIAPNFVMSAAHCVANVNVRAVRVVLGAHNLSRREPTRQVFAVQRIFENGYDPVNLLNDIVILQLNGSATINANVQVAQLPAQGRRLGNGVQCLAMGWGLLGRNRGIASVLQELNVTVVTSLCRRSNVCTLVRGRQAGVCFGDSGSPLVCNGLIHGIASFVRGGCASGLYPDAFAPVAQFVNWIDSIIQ", "assay": "Leukocyte elastase inhibitory activity", "format": "biochemical"}, "[6]": {"tested_on": "leukocyte elastase", "assay": "Leukocyte elastase activity in gingival extracts of LPS-injected rats", "format": "in vivo, rat", "details": "2 mg or 5 mg CMT-3 daily, oral gavage, six days, succinyl-Ala-Ala-Ala-p-nitroanilide", "experimental": "Rats received 0.01 mg of E. coli lipopolysaccharide (LPS) or only a vehicle of saline injected in a volume of 10 μl into the maxillary and mandibular labial gingiva on alternate days for a period of six days. Two sets of rats also received 2 mg or 5 mg CMT-3 daily in a volume of 1 ml, administered by oral gavage, for the six day period, while the other sets of rats received only the vehicle of 2% carboxymethylcellulose. At the end of the six day treatment period, the animals were sacrificed and the gingival tissues were dissected. The tissues from each experimental group were pooled, frozen and thawed, and extracted for assays of enzymatic activity according to the procedure of Yu et al. (Z. Yu, N. S. Ramamurthy, M. Leung, K. M. Chang, T. F. McNamara, and L. M. Golub, \"Chemically Modified Tetracycline Normalizes Collagen Metabolism in Diabetic Rats,\" J. Periodont. Res. 28, 420-428 (1993)). Leukocyte elastase activity was assayed using the substrate succinyl-Ala-Ala-Ala-p-nitroanilide according to the procedure of Ramamurthy and Golub (1983) (N. S. Ramamurthy, and L. M. Golub, \"Diabetes Increases Collagenase Activity in Extracts of Rat Gingiva and Skin,\" J. Periodont. Res. 18, 23-30 (1983)). The finding reported here is the capacity of orally administered CMT-3 to reduce the level of leukocyte elastase activity in the gingival extracts of LPS-injected rats. […]"}}, "note": "“Also recorded” adds a separate entry of the source. Where two headings read alike, the source gives them in different places.", "data": [{"smiles": "NC(=O)C1=C(O)C2(O)C(=O)C3=C(O)c4c(O)cccc4CC3CC2CC1=O", "note": "(stereo not drawn) [CMT-3, 6-demethyl-6-deoxy-4-de(dimethylamino)tetracycline]", "values": [{"measurement": "Ki", "setting": "[1]; 2% DMSO, no detergent, 100 μM through 300 μM substrate, Dixon plot, read-out: Ki for inhibition of amidolytic activity of HLE", "result": "25 to 40", "unit": "µM"}, {"measurement": "mechanism of inhibition of HLE amidolytic activity", "setting": "[1]; Dixon and Cornish-Bowden plots", "result": "predominantly competitive inhibitor"}, {"measurement": "Ki", "setting": "[1]; Dixon and Cornish-Bowden plots, FIGS. 3-5, read-out: apparent K1, inhibition of amidolysis", "result": "18 to 40", "unit": "µM"}, {"measurement": "inhibition of HLE-mediated degradation of ECM, in words", "setting": "[2]; FIG. 2: 25 μM CMT-3, 10 μM purified HLE, compared with PMN, other tetracyclines at comparable doses", "result": "comparable inhibition of human neutrophil-mediated and human leukocyte elastase-mediated degradation of extracellular matrix; also recorded: comparable to that determined from the assays of HLE amidolytic activity"}, {"measurement": "IC50", "setting": "[2]; purified HLE rather than live neutrophils, read-out: apparent I50, ECM degradation mediated by purified HLE", "result": "25 to 50", "unit": "µM"}, {"measurement": "inhibition of neutrophil-mediated ECM degradation", "setting": "[3]", "result": "~ 50%"}, {"measurement": "capacity to inhibit ECM degradation (protecting the ECM from neutrophil-mediated destruction), in words", "setting": "[3]; 30 μM, FIG. 1", "result": "far superior to other tetracyclines in protecting the ECM from neutrophil-mediated destruction"}, {"measurement": "inhibition of ECM degradation, in words", "setting": "[3]; 5-50 μM, Table 1 and FIG. 1", "result": "good inhibition of ECM degradation at all doses employed in this assay"}, {"measurement": "inhibition of neutrophil-mediated ECM degradation", "setting": "[3]; 25-50 μM, dose response studies", "result": "approximately 50%"}, {"measurement": "activity at 5 µM", "setting": "[3]; Homo sapiens, Neutrophil, 5 μm, control = hydrolysis in absence of any inhibitor normalized to 100%, 6 h at 37° C.", "result": 69, "unit": "%"}, {"measurement": "activity at 25 µM", "setting": "[3]; Homo sapiens, Neutrophil, 25 μm, control = hydrolysis in absence of any inhibitor normalized to 100%, 6 h at 37° C.", "result": 55, "unit": "%"}, {"measurement": "activity at 50 µM", "setting": "[3]; Homo sapiens, Neutrophil, 50 μm, control = hydrolysis in absence of any inhibitor normalized to 100%, 6 h at 37° C.", "result": 50, "unit": "%"}, {"measurement": "inhibitory potency, HLE amidolytic activity, in words", "setting": "[4]", "result": "markedly reduced"}, {"measurement": "leukocyte elastase inhibitory activity, in words", "setting": "[5]", "result": "substantial leukocyte elastase inhibitory activity"}, {"measurement": "leukocyte elastase activity in gingival extracts, in words", "setting": "[6]", "result": "reduced the activity of leukocyte elastase; also recorded: to the levels detected in animals receiving gingival injections of saline solution alone"}]}]}
